Results: patent US5380745A, “Medicinal composition” (Meiiji Seika Kaisha, Ltd., priority 1991, dated 1995)
Where two headings read alike, the source gives them in different places.

Experiments:
[1] = Water solubility of PF1022 substance (elution into buffer, HPLC); assay type: physicochemical; details: aqueous buffer, 40 °C, 50 mg PF1022 substance in 50 ml, read-out: Concentration of PF1022 substance
Description: The compositions of Examples 1 to 9 and PF1022 substance alone, employed as a control, were tested. Each composition was weighed in a 100 ml-Erlenmeyer flask, in an amount corresponding to 50 mg of PF1022 substance and 50 ml of McDougall buffer or Clark Lubs buffer was added thereto. McDougall buffer is prepared by dissolving 7.43 g of sodium hydrogencarbonate, 7.0 g of disodium phosphate 12-hydrate, 0.34 g of sodium chloride, 0.43 g of potassium chloride, 0.10 g of magnesium chloride hexahydrate and 0.05 g of calcium chloride in 1,000 ml of water and saturating the mixture with carbon dioxide gas (pH 6.8). Clark Lubs buffer is prepared by adding 50 ml of 0.2N potassium chloride and 10.6 ml of 0.2N hydrochloric acid to 139.4 ml of water (pH 2.0). The mixture was shaken in a thermostat at 40 °±0.5° C. at a vibrational amplitude of 4 cm at 60 rpm to figure eight. Sampling was made with the lapse of time and the amount of the eluate was determined by high performance liquid chromatography.

[2] = test system: cattle nematodes in the digestive tract; test: Anthelmintic effect on cattle nematodes in the digestive tract (EPG); assay type: in vivo; details: oral 25 mg PF1022 substance/kg/day for two days
Description: (§1) The medicinal composition of the present invention was administered to animals in an amount corresponding to a definite amount of PF1022 substance. The whole feces was collected everyday and the number of parasitic eggs per gram of the feces (EPG) were counted. Two weeks after the initiation of the administration, each animal was dissected and the number of parasites remaining in the intestine were counted.
(§2) The medicinal composition obtained in Example 1 was orally administered in a dose as corresponding to 25 mg of PF1022 substance/kg/day for two days. As a control, PF1022 substance alone was administered in the same manner as those described above. […] Each of the medicinal composition as shown in Table 4 was orally administered in a dose corresponding to 5 mg of PF1022 substance/kg/day for two days. As a control, PF1022 substance alone was orally administered in a dose of 25 mg/kg/day for two days.

[3] = test system: sheep nematodes in the digestive tract; test: Anthelmintic effect on sheep nematodes in the digestive tract (EPG); assay type: in vivo; details: PF1022 substance alone oral 25 mg/kg/day for two days
Description: as §1, §2

[4] = test system: parasites in digestive tract of unigastric animals; details: used alone; unigastric animals such as fowl, dog, cat and swine; cited from earlier work
[5] = test system: parasites; details: rumenal animals such as cattle, sheep and goat; cited from earlier work
[6] = PF1022 substance, in words, cited from earlier work

CC(C)CC1C(=O)OC(Cc2ccccc2)C(=O)N(C)C(CC(C)C)C(=O)OC(C)C(=O)N(C)C(CC(C)C)C(=O)OC(Cc2ccccc2)C(=O)N(C)C(CC(C)C)C(=O)OC(C)C(=O)N1C (stereo not shown) [PF1022 substance]
solubility at 1 h ([1]; Clark Lubs buffer (pH 2.0)): < 1 µg/mL
solubility at 24 h ([1]; Clark Lubs buffer (pH 2.0)): < 1 µg/mL
solubility at 1 h ([1]; McDougall buffer (pH 6.8)): < 1 µg/mL
solubility at 24 h ([1]; McDougall buffer (pH 6.8)): < 1 µg/mL
Number of eggs per gram of feces (EPG) ([2]; day 0): 112 EPG
Number of eggs per gram of feces (EPG) ([2]; day 1): 80 EPG
Number of eggs per gram of feces (EPG) ([2]; day 3): 34 EPG
Number of eggs per gram of feces (EPG) ([2]; day 5): 41 EPG
Number of eggs per gram of feces (EPG) ([2]; day 7): 49 EPG
Number of eggs per gram of feces (EPG) ([2]; day 10): 36 EPG
Number of eggs per gram of feces (EPG) ([2]; day 14): 40 EPG
Number of eggs per gram of feces (EPG) ([3]; day 0): 2997 EPG
Number of eggs per gram of feces (EPG) ([3]; day 1): 2313 EPG
Number of eggs per gram of feces (EPG) ([3]; day 3): 13 EPG
Number of eggs per gram of feces (EPG) ([3]; day 5): 9 EPG
Number of eggs per gram of feces (EPG) ([3]; day 7): 32 EPG
Number of eggs per gram of feces (EPG) ([3]; day 10): 12 EPG
Number of eggs per gram of feces (EPG) ([3]; day 14): 8 EPG
anthelmintic effect [4]: particularly marked anthelmintic effect
dosage required relative to unigastric animals [5]: 5 to 10 times
solubility in water [6]: extremely poor solubility in water
solubility in water ([6]; listed as PF1022 Substance): practically insoluble or hardly dispersible in water
